The source of these data is patent US5132304A, “Benzothiazine derivatives and their applications as medicinal products or as synthesis intermediates for medicinal products” (Laboratorios Del Dr. Esteve, S. A., priority 1989, dated 1992).

This experiment concerns carrageenan-induced oedema in Wistar rats. As to the kind of experiment: Inhibition of carrageenan-induced oedema in Wistar rats 3 hours after oral administration. It counts as in vivo. The note with it: p.o.; for Oedema inhibition: N=10, 3 hours after administration; for ED50: Rattus norvegicus, calculated from results 3 hours after oral administration, 2 hours after carrageenan. The procedure:
(Inhibition of carrageenan-induced oedema)
The method followed was that described by Winter et al. (Proc. Soc. Exp. Biol. Med. […]; 111; 544-547).
Inhibition of carrageenan-induced oedema in Wistar rats 3 hours after administration of the product: […]

Turning to `CCOC(=O)OC1=C(C(=O)N(C(=O)OCC)c2ccccn2)N(C)S(=O)(=O)c2ccccc21` [Example 1, N-ethoxycarbonyl-N-(2-pyridyl)-4-ethoxy-carbonyloxy-2-methyl-2H-1,2-benzothiazine-3-carboxamide 1,1-dioxide], the ED50 (as a rule, the dose at which the effect has come halfway, by size or by number of responders) is 5.6 mg/kg. Also, the Oedema inhibition (2.5 mg/kg) is given as 33.8%. Moreover, the Oedema inhibition (5 mg/kg) is reported as 54.3%. The same compound had an Oedema inhibition (10 mg/kg) of 63.8%. This compound also had an Oedema inhibition (40 mg/kg) of 65.5%.
For the compound `CCCCC1C(=O)N(c2ccccc2)N(c2ccccc2)C1=O` [Phenylbutazone, phenylbutazone, reference compound], the ED50 was 19.6 mg/kg. The same compound had an Oedema inhibition (12.5 mg/kg) of 46.6%. This compound also came in with an Oedema inhibition (25 mg/kg) of 52.1%.
